Key:
P. falciparum DHODH = biological target: T1, P. falciparum DHODH (Plasmodium falciparum, UniProt Q08210); assay: DHODH inhibition, steady-state DCIP assay (PfDHODH); format: biochemical; conditions: recombinant PfDHODH, DCIP method, 25°C, 5 nM enzyme
T1 construct: His6 (N); made in house; host or cells: E. coli BL21-DE3 (phage-resistant)
Method: (§1) Compound stocks were prepared at 10-100 mM in DMSO, and diluted working stocks in DMSO were generated as appropriate. Compounds were plated from DMSO stocks in 96 well plate format using a Tecan D300e digital dispenser to generate a 3-fold dilution series over a concentration range of 0.0003 -100 µM (or 30 µM), yielding a final DMSO concentration of 1% in the assay. The top concentration used in the dose response was determined by the initial DMSO stock concentrations:100 µM for 100 mM stocks, and 30 µM for 10 mM stocks. Triplicate rate data were collected at each inhibitor concentration. Inhibitory IC50 values were determined by fitting the data to log (inhibitor) vs response equation Y = bottom + (top - bottom)/(1 + 10A ((X - Log IC50))) in GraphPad Prism.

P. falciparum 3D7 = assay: Asexual blood-stage growth inhibition assay, SYBR green method; format: cell-based; conditions: Plasmodium falciparum, 3D7, 72 h, ring-stage 3D7 parasites
Method: Asexual blood-stage EC50 assays. […] Compound stocks prepared in DMSO were plated using a Tecan D300e automated low volume liquid handler. Ring-stage 3D7 or Dd2 parasites (60 µL cells) (2% hematocrit, 0.5% parasitemia, final DMSO concentration 0.5%) were added to plates, incubated with compounds over a range of concentrations in technical triplicate for 72 h at 37 °C, 5% CO2, and then frozen (-80°C) overnight before analysis. […] Data were analyzed by non-linear regression using GraphPad Prism to determine the EC50 by fitting to the built-in equation (log(inhibitor) vs response-variable slope with four parameters).

P. vivax DHODH = P. vivax DHODH (Plasmodium vivax, UniProt A5K1N1); assay: DHODH inhibition, steady-state DCIP assay (PvDHODH); format: biochemical; conditions: recombinant PvDHODH, DCIP method, 25°C, 5 nM enzyme; read-out: P. vivax DHODH (IC50)
Chain of P. vivax DHODH (A5K1N1 entry or part of it): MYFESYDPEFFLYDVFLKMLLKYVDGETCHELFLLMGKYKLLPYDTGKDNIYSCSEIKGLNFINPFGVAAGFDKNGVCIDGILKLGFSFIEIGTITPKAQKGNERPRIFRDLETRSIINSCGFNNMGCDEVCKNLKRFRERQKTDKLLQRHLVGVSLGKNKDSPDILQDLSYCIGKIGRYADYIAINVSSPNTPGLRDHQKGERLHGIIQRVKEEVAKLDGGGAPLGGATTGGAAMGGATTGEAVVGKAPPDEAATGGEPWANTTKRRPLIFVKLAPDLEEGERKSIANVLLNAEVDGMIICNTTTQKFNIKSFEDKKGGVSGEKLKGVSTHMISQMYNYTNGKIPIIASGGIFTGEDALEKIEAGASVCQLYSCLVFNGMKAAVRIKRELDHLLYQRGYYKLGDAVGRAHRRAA
Text: (§2) DOI: 10.1074/jbc.M206854200).
(§3) Proteins were expressed and purified on a Pharmacia FPLC using HisTrap HP column chromatography followed by gel filtration chromatography on a Pharmacia HiLoad 16/600 Superdex 200 column, and protein concentration determined based on OD280 using the previously described extinction coefficients (Kokkonda et al., 2020, J Med Chem, 63 (9), 4929-4956. DOI: 10.1021/acs.jmedchem.0c00311). Purified proteins were >95% pure based on SDS-PAGE analysis.
(§4) DHODH activity was monitored in a steady-state assay using the 2,6-dichloroindophenol (DCIP) method at 25°C in assay buffer (100 mM HEPES, pH 8.0, 150 mM NaCl, 1% glycerol, 0.1% Triton X-100 reduced) plus substrates 20 µM CoQD, 200 µM DHO, 120 µM DCIP, and 5 nM enzyme as previously described (Malmquist et al, 2008, Biochemistry, 47 (8), 2466-2475. DOI: 10.1021/bi702218c).
as §1, with “Prism. DSM265 ^2 was plated as an assay control in all studies.” for “Prism.”

Human DHODH = biological target: T2, Human DHODH (Homo sapiens, UniProt Q02127); assay: DHODH inhibition, steady-state DCIP assay (human DHODH); format: biochemical; conditions: recombinant HsDHODH, DCIP method, 25°C, 5 nM enzyme; top concentration 100 µM or 30 µM
T2 construct: C-terminal His6-tagged HsDHODH residues 29-395 in pET-22b (start ^29MATGDE); His6 (C); made in house; host or cells: E. coli BL21-DE3 (phage-resistant)
T2 sequence (Q02127 29-395): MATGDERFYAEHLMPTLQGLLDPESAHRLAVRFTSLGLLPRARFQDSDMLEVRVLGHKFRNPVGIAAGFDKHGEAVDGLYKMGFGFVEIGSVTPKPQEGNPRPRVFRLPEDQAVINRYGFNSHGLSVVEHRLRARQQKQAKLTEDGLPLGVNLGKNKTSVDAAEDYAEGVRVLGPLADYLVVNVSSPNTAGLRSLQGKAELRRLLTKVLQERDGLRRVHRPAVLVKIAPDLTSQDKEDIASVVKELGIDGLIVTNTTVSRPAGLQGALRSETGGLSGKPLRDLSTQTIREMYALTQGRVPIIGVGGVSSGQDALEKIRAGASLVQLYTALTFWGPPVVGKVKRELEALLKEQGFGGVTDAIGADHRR
Text: as §2, §3, §4
as §1, with “Prism. DSM265 ^2 was plated as an assay control in all studies.” for “Prism.”

T1 sequence (Q08210 158-569): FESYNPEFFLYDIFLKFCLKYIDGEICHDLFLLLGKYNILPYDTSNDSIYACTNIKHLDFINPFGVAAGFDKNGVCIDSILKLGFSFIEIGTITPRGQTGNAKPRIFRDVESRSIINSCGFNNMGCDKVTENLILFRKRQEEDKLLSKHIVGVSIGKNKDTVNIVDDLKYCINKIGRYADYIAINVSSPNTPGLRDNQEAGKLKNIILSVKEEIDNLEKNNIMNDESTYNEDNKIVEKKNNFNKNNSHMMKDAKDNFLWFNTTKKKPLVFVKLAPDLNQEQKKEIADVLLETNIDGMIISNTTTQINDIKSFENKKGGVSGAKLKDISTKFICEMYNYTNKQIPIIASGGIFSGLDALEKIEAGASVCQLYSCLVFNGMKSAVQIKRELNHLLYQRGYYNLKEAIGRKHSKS

| SMILES | IC50 (P. falciparum DHODH) [nM] | EC50 (P. falciparum 3D7) [nM] | IC50 (P. vivax DHODH) [nM] | IC50 (Human DHODH) [nM] |
| --- | --- | --- | --- | --- |
| CC[C@@](O)(c1ccc(F)c(Cl)c1)c1c2ccn(C3CC3)c(=O)c2nn1C (single isomer, unassigned) [1-13] | 7 | 0.49 | 11 | 670 |
| CC[C@@](O)(c1cnc(C(F)(F)F)c(Cl)c1)c1c2ccn(C3CC3)c(=O)c2nn1C (single isomer, unassigned) [1-14] | 14 | 0.64 | 18 | 4200 |
| Cn1nc2c(=O)n(C3CC3)ccc2c1[C@](O)(c1cnc(C(F)(F)F)c(Cl)c1)C1CC1 (single isomer, unassigned) [1-16] | 16 | 3.2 | 23 | > 30000 |
| Cn1nc2c(=O)n(C3CC3)ccc2c1[C@](O)(c1ccc(F)c(Cl)c1)C1CC1 (single isomer, unassigned) [1-18] | 12 | 9 | 11 | 22000 |
| CCn1cc(F)c2c([C@@](O)(CC)c3ccc(C(F)(F)F)nc3)n(C)nc2c1=O (single isomer, unassigned) [1-24] | 24 | 1.2 | 33 | 6200 |
| Cn1nc2c(=O)n(C3CC3)ccc2c1[C@](O)(c1ccc(C(F)(F)F)nc1)C1CC1 (single isomer, unassigned) [1-26] | 46 | 6.7 | 48 | > 30000 |
| CCn1cc(C2CC2)c2c([C@H](O)c3cnc(C(F)(F)F)c(Cl)c3)n(C)nc2c1=O (single isomer, unassigned) [1-28] | 26 | 4.6 | 11 | > 100000 |
| CCn1cc(C)c2c([C@H](O)c3ccc(Cl)c(F)c3)n(C)nc2c1=O (single isomer, unassigned) [1-30] | 18 | 7 | 7.9 | 34000 |
| CCn1ccc2c([C@@](O)(CC)c3ccc(F)c(Cl)c3)n(C)nc2c1=O (single isomer, unassigned) [1-34] | 21 | 0.3 | 4.1 | 3900 |
| CCn1ccc2c([C@](C)(O)c3cnc(C(F)(F)F)c(Cl)c3)n(C)nc2c1=O (single isomer, unassigned) [1-36] | 45 | 1.4 | 9.2 | > 100000 |
| CCn1ccc2c([C@](O)(c3ccc(F)c(Cl)c3)C3CC3)n(C)nc2c1=O (single isomer, unassigned) [1-38] | 17 | 1.5 | 4.3 | 88000 |
| CCn1ccc2c([C@](C)(O)c3ccc(F)c(Cl)c3)n(C)nc2c1=O (single isomer, unassigned) [1-40] | 17 | 0.42 | 5.2 | 80000 |
| CCn1ccc2c([C@@](O)(CC)c3cnc(C(F)(F)F)c(Cl)c3)n(C)nc2c1=O (single isomer, unassigned) [1-42] | 13 | 0.49 | 7.9 | 41000 |
| CCn1ccc2c([C@](C)(O)c3ccc(C(F)(F)F)c(Cl)c3)n(C)nc2c1=O (single isomer, unassigned) [1-46] | 10 | 0.2 | 5.8 | 41000 |
| CCn1ccc2c([C@](O)(c3ccc(C(F)(F)F)nc3)C(C)C)n(C)nc2c1=O (single isomer, unassigned) [1-48] | 81 | 18 | 44 | > 100000 |
| CCn1ccc2c([C@@](O)(CC)c3ccc(C(F)(F)F)nc3)n(C)nc2c1=O (single isomer, unassigned) [1-50] | 54 | 1.5 | 27 | 46000 |

| SMILES | IC50 (P. falciparum DHODH) [nM] | EC50 (P. falciparum 3D7) [nM] | IC50 (P. vivax DHODH) [nM] | IC50 (Human DHODH) [nM] |
| --- | --- | --- | --- | --- |
| CC[C@@](O)(c1cnc(C(F)(F)F)c(Cl)c1)c1c2cnn(C3CC3)c(=O)c2nn1C1CC1 (single isomer, unassigned) [2-1] | 29 | 12 | 10 | 2300 |
| CCn1nc2c(=O)n(C3CC3)ncc2c1[C@@](O)(CC)c1cnc(C(F)(F)F)c(Cl)c1 (single isomer, unassigned) [2-3] | 29 | 9.9 | 11 | 2700 |
| CC[C@@](O)(c1ccc(C(F)(F)F)c(C#N)c1)c1c2cnn(C3CC3)c(=O)c2nn1C (single isomer, unassigned) [2-5] | 19 | 1.3 | 19 | 4800 |
| Cn1nc2c(=O)n(C3CC3)ncc2c1[C@](O)(c1ccc(C(F)(F)F)c(C#N)c1)C1CC1 (single isomer, unassigned) [2-7] | 23 | 4.2 | 17 | > 30000 |
| Cn1nc2c(=O)n(C3CC3)ncc2c1[C@](O)(c1ccc(C(F)(F)F)c(Cl)c1)C1CC1 (single isomer, unassigned) [2-11] | 9.6 | 1.9 | 9.9 | > 30000 |
| CC[C@@](O)(c1ccc(C(F)(F)F)c(Cl)c1)c1c2cnn(C3CC3)c(=O)c2nn1C (single isomer, unassigned) [2-15] | 6.2 | 0.32 | 9.8 | 1700 |
| CC[C@@](O)(c1ccc(F)c(Cl)c1)c1c2cnn(C3CC3)c(=O)c2nn1C (single isomer, unassigned) [2-17] | 8.4 | 1.7 | 9.5 | 2500 |
| CCn1ncc2c([C@@](O)(CC)c3ccc(C(F)(F)F)c(Cl)c3)n(C)nc2c1=O (single isomer, unassigned) [2-19] | 6.9 | 0.35 | 2.9 | 11000 |
| Cn1nc2c(=O)n(C3CC3)cnc2c1[C@](C)(O)c1cnc(C(F)(F)F)c(Cl)c1 (single isomer, unassigned) [3-1] | 21 | 2.2 | 7.9 | > 30000 |
| Cn1nc2c(=O)n(C3CC3)cnc2c1[C@](O)(c1cnc(C(F)(F)F)c(Cl)c1)C1CC1 (single isomer, unassigned) [3-3] | 22 | 4 | 8.3 | > 30000 |
| CC[C@@](O)(c1ccc(C(F)(F)F)nc1)c1c2ncn(C3CC3)c(=O)c2nn1C (single isomer, unassigned) [3-7] | 27 | 1.6 | 55 | 14000 |
| Cn1nc2c(=O)n(C3CC3)cnc2c1[C@](O)(c1ccc(C(F)(F)F)nc1)C1CC1 (single isomer, unassigned) [3-9] | 48 | 12 | 59 | > 30000 |
| CCn1cnc2c([C@](C)(O)c3ccc(C(F)(F)F)c(C#N)c3)n(C)nc2c1=O (single isomer, unassigned) [3-11] | 32 | 0.52 | 9.4 | > 100000 |
| Cn1nc2c(=O)n(C3CC3)ccc2c1[C@](N)(c1cnc(C(F)(F)F)c(Cl)c1)C(F)(F)F (single isomer, unassigned) [4-1] | 21 | 2.6 | 13 | > 30000 |
| Cn1nc2c(=O)n(C3CC3)ccc2c1[C@](C)(N)c1ccc(C(F)(F)F)c(Cl)c1 (single isomer, unassigned) [4-4] | 12 | 0.61 | 9 | 15000 |
